For this test, the system named is embryonic stem cells. Put plainly: Embryonic stem cells treated with NAD+ synthesis inhibitor FK866 and NAD precursors (NAD level, AP activity, apoptosis). It counts as cell-based, human. As to the method: Embryonic stem cells were treated with nicotinamide and related compounds, and after 6 days, protein was isolated from the cells. NAD cycling enzyme was added to and reacted with 20 μg of the protein per each group at room temperature for 5 minutes, and then a NADH developer was added and reacted therewith for 2-3 hours. The absorbance at 450 nm was measured using a microplate reader, and the amount of the […] was quantified.
AP staining was performed using a commercial AP kit (Sigma) according to the manufacturer's instruction. Images of AP-positive cells were recorded with HP Scanjet G4010. Also, bight field images were obtained with an Olympus microscope (IX51, Olympus, Japan).
In order to examine the effect of nicotinamide on a reduction in the apoptosis of human pluripotent stem cells, dual apoptosis assay (Biotium, Hayward, Calif.) was performed. Embryonic stem cells or cells reprogrammed were stained with NucView™488 Caspase-3 Substrate (green)/Annextin V (red) at room temperature for 30 minutes, followed by washing with PBS. At least 4 sections of each sample were imaged with an Olympus fluorescence microscope (IX51, Olympus), and the number of cells stained with green (Caspase-3) was counted to quantify the degree of apoptosis.

For `O=C(/C=C/c1cccnc1)NCCCCC1CCN(C(=O)c2ccccc2)CC1` [FK866], for the setting “treated with FK866”, the apoptosis result is “induced”, the “concentration of NAD in the cells” value is reported as “decreased” and the “state of the embryonic stem cells” value is recorded as “differentiated”.
As to `O=C(O)c1cccnc1` [nicotinic acid], under “co-treatment with FK866, also in mTeSR1-CDM”, the “recovery from damage caused by FK866” value is “recovered”.

For the origin of these results see patent US20150072416A1, “METABOLITE FOR IMPROVING PRODUCTION, MAINTENANCE AND PROLIFERATION OF PLURIPOTENT STEM CELLS, COMPOSITION COMPRISING THE SAME, AND METHOD OF CULTURING PLURIPOTENT STEM CELL USING THE SAME” (KOREA RESEARCH INSTITUTE OF BIOSCIENCE AND BIOTENOLOGY, priority 2012, published 2015).
